# Like-named read-outs stand apart in the source and are kept apart here.
# Columns and labels:
# [1] = system: human multiple myeloma cell line, OPM-2; test: Cell viability assay (OPM-2 10 FBS), CellTiter-Glo; assay type: cell-based
# How it was run: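 Cells were seeded at 3000 cells/well in RPMI 1640 with 10% FBS and exposed to serially diluted compounds for 16 h at 37 °C, 5% CO2.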
# [2] = target: recombinant human Mcl-1 (residues 171-327) / Bim interaction (Homo sapiens (Human), UniProt Q07820); test: biochemical; assay type: binding; conditions: read-out: Mcl-1 HTRF IC50
# [3] = Homo sapiens, OPM-2, 16 h, read-out: OPM-2 10% FBS IC50 IP, OPM-2 cells, 10% FBS, 16 h incubation
# [4] = 0.1 nM Mcl-1(171-327), 0.05 nM biotin-Bim (51-76)
# [5] = Homo sapiens, OPM-2, 16 h, read-out: OPM-2 10% FBS IC50 IP, OPM-2 cells, 10% FBS, 16 h, CellTiter-Glo
# [6] = TR-FRET, Mcl-1(171-327) / biotin-Bim (51-76)
# [7] = read-out: OPM-2 10% FBS IC50 IP, OPM-2 cells, 10% FBS, 16 h, CellTiter-Glo
# recombinant human Mcl-1 (residues 171-327) / Bim interaction, sequence (Q07820 171-327): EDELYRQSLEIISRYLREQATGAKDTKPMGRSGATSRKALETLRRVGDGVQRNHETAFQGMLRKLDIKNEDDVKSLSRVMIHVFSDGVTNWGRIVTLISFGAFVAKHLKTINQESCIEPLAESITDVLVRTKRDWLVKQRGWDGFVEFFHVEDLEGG
Compound,"IC50 [1, 3]","IC50 [2, 4]","IC50 [1, 5]","IC50 [2, 6]","IC50 [1, 7]"
"CO[C@]1(CN2CCN(Cc3cscn3)CC2)/C=C/C[C@H](C)[C@@H](C)S(=O)(=O)NC(=O)c2ccc3c(c2)N(C[C@@H]2CC[C@H]21)C[C@@]1(CCCc2cc(Cl)ccc21)CO3 [Example 72, (1S,3′R,6′R,7′R,8′E,11′S,12′R)-6-chloro-7′-methoxy-11′,12′-dimethyl-7′-((4-(1,3-thiazol-4-ylmethyl)-1-piperazinyl)methyl)-3,4-dihydro-2H,15′H-spiro[naphthalene-1,22′-[20]oxa[13]thia[1,14]diazatetracyclo [14.7.2.0~3,6~.0~19,24~]pentacosa[8,16,18,24]tetraen]-15′-one 13′,13′-dioxide]",185 nM,0.8 nM,–,–,–
"CO[C@]1(CN2CCN(C3CCC3)CC2)/C=C/C[C@H](C)[C@@H](C)S(=O)(=O)NC(=O)c2ccc3c(c2)N(C[C@@H]2CC[C@H]21)C[C@@]1(CCCc2cc(Cl)ccc21)CO3 [Example 92, (1S,3′R,6′R,7′R,8′E,11′S,12′R)-6-chloro-7′-((4-cyclobutyl-1-piperazinyl)methyl)-7′-methoxy-11′,12′-dimethyl-3,4-dihydro-2H,15′H-spiro[naphthalene-1,22′-[20]oxa[13]thia[1,14]diazatetracyclo [14.7.2.0~3,6~.0~19,24~]pentacosa[8,16,18,24]tetraen]-15′-one 13′,13′-dioxide]",199 nM,0.143 nM,–,–,–
"CC(C)OC[C@]1(O)/C=C/C[C@H](C)[C@@H](C)S(=O)(=O)NC(=O)c2ccc3c(c2)N(C[C@@H]2CC[C@H]21)C[C@@]1(CCCc2cc(Cl)ccc21)CO3 [Example 100442, (1S,3′R,6′R,7′S,8′E,11′S,12′R)-6-chloro-7′-hydroxy-11′,12′-dimethyl-7′-((2-propanyloxy)methyl)-3,4-dihydro-2H,15′H-spiro[naphthalene-1,22′-[20]oxa[13]thia[1,14]diazatetracyclo [14.7.2.0~3,6~.0~19,24~]pentacosa[8,16,18,24]tetraen]-15′-one 13′,13′-dioxide]",–,–,3870 nM,0.921 nM,–
"COCCN1CCN(C[C@]2(OC)/C=C/C[C@H](C)[C@@H](C)S(=O)(=O)NC(=O)c3ccc4c(c3)N(C[C@@H]3CC[C@H]32)C[C@@]2(CCCc3cc(Cl)ccc32)CO4)CC1 [Example 195, (1S,3′R,6′R,7′S,8′E,11′S,12′R)-6-chloro-7′-methoxy-7′-((4-(2-methoxyethyl)-1-piperazinyl)methyl)-11′,12′-dimethyl-3,4-dihydro-2H,15′H-spiro[naphthalene-1,22′-[20]oxa[13]thia[1,14]diazatetracyclo [14.7.2.0~3,6~.0~19,24~]pentacosa[8,16,18,24]tetraen]-15′-one 13′,13′-dioxide]",65 nM,0.214 nM,–,–,–
CO[C@@]1(CC2=N[C@H](C)C(=O)O2)/C=C/C[C@H](C)[C@@H](C)S(=O)(=O)NC(=O)c2ccc3c(c2)N(C[C@@H]2CC[C@H]21)C[C@@]1(CCCc2cc(Cl)ccc21)CO3 (stereo in doubt) [Example 100531],–,–,172 nM,0.083 nM,–
"CO[C@]1(CN2CCN3CCOC[C@@H]3C2)/C=C/C[C@H](C)[C@@H](C)S(=O)(=O)NC(=O)c2ccc3c(n2)N(C[C@@H]2CC[C@H]21)C[C@@]1(CCCc2cc(Cl)ccc21)CO3 [Example 185, (1S,3′R,6′R,7′R,8′E,11′S,12′R)-6-chloro-7′-((9aS)-hexahydropyrazino[2,1-c][1,4]oxazin-8(1H)-ylmethyl)-7′-methoxy-11′,12′-dimethyl-3,4-dihydro-2H,15′H-spiro[naphthalene-1,22′-[20]oxa[13]thia[1,14,25]triazatetracyclo [14.7.2.0~3,6~.0~19,24~]pentacosa[8,16,18,24]tetraen]-15′-one 13′,13′-dioxide]",1060 nM,0.17 nM,–,–,–
"C=CC[C@]1(O)CCC[C@H](C)[C@@H](C)S(=O)(=O)NC(=O)c2ccc3c(c2)N(C[C@@H]2CC[C@H]21)C[C@@]1(CCCc2cc(Cl)ccc21)CO3 (single isomer, unassigned) [Example 100273]",–,–,–,5.66 nM,8660 nM
"C[C@@H]1[C@@H](C)CCC[C@@](O)(CC(=O)N2CCCCC2)[C@@H]2CC[C@H]2CN2C[C@@]3(CCCc4cc(Cl)ccc43)COc3ccc(cc32)C(=O)NS1(=O)=O [Example 100090, (1S,3′R,6′R,7′R,11′S,12′R)-6-chloro-7′-hydroxy-11′,12′-dimethyl-7′-(2-oxo-2-(1-piperidinyl)ethyl)-3,4-dihydro-2H,15′H-spiro[naphthalene-1,22′-[20]oxa[13]thia[1,14]diazatetracyclo [14.7.2.0~3,6~.0~19,24~]pentacosa[16,18,24]trien]-15′-one 13′,13′-dioxide]",–,–,–,0.795 nM,798 nM
"CO[C@@]1(CN2CCN(C3(C)COC3)CC2)/C=C/C[C@H](C)[C@@H](C)S(=O)(=O)NC(=O)c2ccc3c(c2)N(C[C@@H]2CC[C@H]21)C[C@@]1(CCCc2cc(Cl)ccc21)CO3 [Example 268, (1S,3′R,6′R,7′S,8′E,11′S,12′R)-6-chloro-7′-methoxy-11′,12′-dimethyl-7′-((4-(3-methyl-3-oxetanyl)-1-piperazinyl)methyl)-3,4-dihydro-2H,15′H-spiro[naphthalene-1,22′-[20]oxa[13]thia[1,14]diazatetracyclo [14.7.2.0~3,6~.0~19,24~]pentacosa[8,16,18,24]tetraen]-15′-one 13′,13′-dioxide]",72 nM,0.065 nM,–,–,–
"COCCN(C)C(=O)C[C@]1(O)CCC[C@H](C)[C@@H](C)S(=O)(=O)NC(=O)c2ccc3c(c2)N(C[C@@H]2CC[C@H]21)C[C@@]1(CCCc2cc(Cl)ccc21)CO3 [Example 100140, 2-((1S,3′R,6′R,7′R,11′S,12′R)-6-chloro-7′-hydroxy-11′,12′-dimethyl-13′,13′-dioxido-15′-oxo-3,4-dihydro-2H-spiro[naphthalene-1,22′-[20]oxa[13]thia[1,14]diazatetracyclo [14.7.2.0~3,6~.0~19,24~]pentacosa[16,18,24]trien]-7′-yl)-N-(2-methoxyethyl)-N-methylacetamide]",–,–,–,0.486 nM,299 nM
"COCCO[C@@]1(C)/C=C/C[C@H](C)[C@@H](C)S(=O)(=O)NC(=O)c2ccc3c(c2)N(C[C@@H]2CC[C@H]21)C[C@@]1(CCCc2cc(Cl)ccc21)CO3 [Example 100466, (1S,3′R,6′R,7′S,8′E,11′S,12′R)-6-chloro-7′-(2-methoxyethoxy)-7′,11′,12′-trimethyl-3,4-dihydro-2H,15′H-spiro[naphthalene-1,22′-[20]oxa[13]thia[1,14]diazatetracyclo [14.2.0~3,6~.0~19,24~]pentacosa[8,16,18,24]tetraen]-15′-one 13′,13′-dioxide]",–,–,1440 nM,0.043 nM,–
"C[C@@H]1[C@@H](C)C/C=C/[C@@](O)(C(F)(F)F)[C@@H]2CC[C@H]2CN2C[C@@]3(CCCc4cc(Cl)ccc43)COc3ccc(cc32)C(=O)NS1(=O)=O [Example 100045, (1S,3′R,6′R,7′S,8′E,11′S,12′R)-6-chloro-7′-hydroxy-11′,12′-dimethyl-7′-(trifluoromethyl)-3,4-dihydro-2H,15′H-spiro[naphthalene-1,22′-[20]oxa[13]thia[1,14]diazatetracyclo [14.7.2.0~3,6~.0~19,24~]pentacosa[8,16,18,24]tetraen]-15′-one 13′,13′-dioxide]",–,–,342 nM,0.308 nM,–
"CO[C@]1(CN2CCN3C[C@H](C)OC[C@@H]3C2)/C=C/C[C@H](C)[C@@H](C)S(=O)(=O)NC(=O)c2ccc3c(c2)N(C[C@@H]2CC[C@H]21)C[C@@]1(CCCc2cc(Cl)ccc21)CO3 [Example 146, (1S,3′R,6′R,7′R,8′E,11′S,12′R)-6-chloro-7′-methoxy-11′,12′-dimethyl-7′-(((3S,9aS)-3-methylhexahydropyrazino[2,1-c][1,4]oxazin-8(1H)-yl)methyl)-3,4-dihydro-2H,15′H-spiro[naphthalene-1,22′-[20]oxa[13]thia[1,14]diazatetracyclo [14.7.2.0~3,6~.0~19,24~]pentacosa[8,16,18,24]tetraen]-15′-one 13′,13′-dioxide]",150 nM,0.337 nM,–,–,–
"COCC#C[C@@]1(OC)/C=C/C[C@H](C)[C@@H](C)S(=O)(=O)NC(=O)c2ccc3c(c2)N(C[C@@H]2CC[C@H]21)C[C@@]1(CCCc2cc(Cl)ccc21)CO3 [Example 100343, (1S,3′R,6′R,7′R,8′E,11′S,12′R)-6-chloro-7′-methoxy-7′-(3-methoxy-1-propyn-1-yl)-11′,12′-dimethyl-3,4-dihydro-2H,15′H-spiro[naphthalene-1,22′-[20]oxa[13]thia[1,14]diazatetracyclo [14.7.2.0~3,6~.0~19,24~]pentacosa[8,16,18,24]tetraen]-15′-one 13′,13′-dioxide]",–,–,617 nM,2.51 nM,–
"C[C@@H]1[C@@H](C)CCC[C@@](O)([C@@H]2OCCN(C)C2=O)[C@@H]2CC[C@H]2CN2C[C@@]3(CCCc4cc(Cl)ccc43)COc3ccc(cc32)C(=O)NS1(=O)=O [Example 100205, (1S,3′R,6′R,7′S,11′S,12′R)-6-chloro-7′-hydroxy-11′,12′-dimethyl-7′-((2S)-4-methyl-3-oxo-2-morpholinyl)-3,4-dihydro-2H,15′H-spiro[naphthalene-1,22′-[20]oxa[13]thia[1,14]diazatetracyclo [14.7.2.0~3,6~.0~19,24~]pentacosa[16,18,24]trien]-15′-one 13′,13′-dioxide]",–,–,68 nM,0.206 nM,–

# From patent US10821115B2, “Compounds that inhibit Mcl-1 protein” (priority 2017, dated 2020)
